Laboratory results: ChEMBL document CHEMBL1201862, “PubChem BioAssay data set” (2004)
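48-hour exposure; five concentrations; linearly interpolated endpoints. GI50 marks 50% less growth.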 The source made the active and inactive calls. Rule as the data show it: active = GI50 up to about 1.1 µM and inactive = higher.

Assays:
Test in all cases: NCI anticancer screen, dose series, 48 h
786-0 = system: 786-0
A498 = system: A498
A549 = system: A549
CCRF-CEM = system: CCRF-CEM
COLO 205 = system: COLO 205
HCT-116 = system: HCT-116
HCT-15 = system: HCT-15
HL-60 = system: HL-60
HOP-92 = system: HOP-92
KM12 = system: KM12
MDA-MB-231 = system: MDA-MB-231
NCI-H23 = system: NCI-H23
NCI/ADR-RES = system: NCI/ADR-RES
OVCAR-5 = system: OVCAR-5
SF-268 = system: SF-268
SK-MEL-5 = system: SK-MEL-5
SK-OV-3 = system: SK-OV-3
SR = system: SR
TK-10 = system: TK-10
UACC-257 = system: UACC-257

Compound | GI50 (786-0) | GI50 (A498) | GI50 (A549) | GI50 (CCRF-CEM) | GI50 (COLO 205) | GI50 (HCT-116) | GI50 (HCT-15) [µM] | GI50 (HL-60) | GI50 (HOP-92) | GI50 (KM12) | GI50 (MDA-MB-231) | GI50 (NCI-H23) | GI50 (NCI/ADR-RES) | GI50 (OVCAR-5) | GI50 (SF-268) | GI50 (SK-MEL-5) | GI50 (SK-OV-3) | GI50 (SR) | GI50 (TK-10) | GI50 (UACC-257)
COc1ccc2c3c1O[C@H]1[C@@H](O)CC[C@@]4(O)[C@@H](C2)N(C)CC[C@]314 | > 100 µM (inactive) | > 100 µM (inactive) | > 100 µM (inactive) | > 100 µM (inactive) | > 100 µM (inactive) | > 100 µM (inactive) | > 100 | 2.93 µM (inactive) | > 100 µM (inactive) | > 100 µM (inactive) | > 100 µM (inactive) | > 100 µM (inactive) | > 100 µM (inactive) | > 100 µM (inactive) | > 100 µM (inactive) | > 100 µM (inactive) | > 100 µM (inactive) | > 100 µM (inactive) | > 100 µM (inactive) | > 100 µM (inactive)
O=C(Nc1ccc(S(=O)(=O)Nc2ncccn2)cc1)c1c2ccccc2nc2ccccc12 | > 100 µM (inactive) | > 100 µM (inactive) | > 100 µM (inactive) | > 10 µM (inactive) | > 100 µM (inactive) | > 100 µM (inactive) | > 100 | < 0.01 µM (active) | > 100 µM (inactive) | > 100 µM (inactive) | > 100 µM (inactive) | > 100 µM (inactive) | > 100 µM (inactive) | > 100 µM (inactive) | > 100 µM (inactive) | > 100 µM (inactive) | > 100 µM (inactive) | 55.7 µM (inactive) | > 100 µM (inactive) | > 100 µM (inactive)
